Measured values: patent US8304422B2, “Compositions and methods for inhibition of the JAK pathway” (Rigel Pharmaceuticals, Inc., priority 2007, dated 2012)

Tests used:
[1] = test system: Ramos B-Cell Line Stimulated with IL-4; test: Assay for Ramos B-Cell Line Stimulated with IL-4 (CD23 upregulation, FACS; Example 2); assay type: cell-based; settings: human Ramos B cells, IL-4 50 units/mL for 20-24 hours, anti-CD23-PE
Description: One means of assaying for such inhibition is detection of the effect of the 2,4-pyrimidinediamine compounds on the upregulation of downstream gene products. In the Ramos/IL4 assay, B-cells are stimulated with the cytokine Interleukin-4 (IL-4) leading to the activation of the JAK/Stat pathway through phosphorylation of the JAK family kinases, JAK1 and JAK3, which in turn phosphorylate and activate the transcription factor Stat-6. […] To study the effect of inhibitors (e.g., the 2,4-substituted pyrimindinediamine compounds described herein) on the JAK1 and JAK3 kinases, human Ramos B cells are stimulated with human IL-4. 20 to 24 hours post stimulation, cells are stained for upregulation of CD23 and analyzed using flow cytometry (FACS). […] An exemplary assay of this type is described in greater detail in Example 2.
B-cells stimulated with cytokine Interleukin-4 (IL-4) activate the JAK/Stat pathway through phosphorylation of the JAK family kinases, JAK-1 and JAK-3, which in turn phosphorylate and activate the transcription factor Stat-6. […] To study the effect of inhibitors on the JAK family kinases, human Ramos B cells are stimulated with human IL-4.
The Ramos B-cell line was acquired from ATCC (ATCC Catalog No. CRL-1596). The cells were cultured in RPMI 1640 (Cellgro, MediaTech, Inc., Herndon, Va., Cat No. 10-040-CM) with 10% fetal bovine serum (FBS), heat inactivated (JRH Biosciences, Inc, Lenexa, Kans., Cat No. 12106-500M) according to ATCC propagation protocol. Cells were maintained at a density of 3.5×10^5. The day before the experiment, Ramos B-cells were diluted to 3.5×10^5 cells/mL to ensure that they were in a logarithmic growth phase.
Cells were spun down and suspended in RPMI with 5% serum. 5×10^4 cells were used per point in a 96-well tissue culture plate. Cells were pre-incubated with compound or DMSO (Sigma-Aldrich, St. Louis, Mo., Cat No. D2650) vehicle control for 1 hour in a 37° C. incubator.
Cells were then stimulated with IL-4 (Peprotech Inc., Rocky Hill, N.J., Cat No. 200-04) for a final concentration of 50 units/mL for 20-24 hours. Cells were then spun down and stained with anti-CD23-PE (BD Pharmingen, San Diego, Calif., Cat No. 555711) and analyzed by FACS. Detection was performed using a BD LSR I System Flow Cytometer, purchased from Becton Dickinson Biosciences of San Jose, Calif.

[2] = test system: BaF3 V617F cells; UKE-1; test: Proliferation Assay (Cell Titer-Glo; Example 7); assay type: cell-based; settings: proliferation 72 hours, inhibit JAK2 activity, cell line (BaF3 V617F or UKE-1) not stated
How it was run: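 BaF3 V617F cells (RPMI, 10% FBS) and UKE-1 cells (Iscove's DMEM, 10% FBS, 10% equine serum, 1 uM hydrocortisone) were exposed to 3-fold serially diluted compound in duplicate for 72 hours at 37 °C. Viable cell number quantified by Cell Titer-Glo luminescence; IC50 reported.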

SMILES	IC50 [1] [nM]	IC50 [2] [nM]
Cc1cnc(Nc2ccc(C3CCN(C)CC3)cc2)nc1Nc1ccc2c(c1)C(NS(C)(=O)=O)CC2 (racemic) [V-2, (+/−)-5-Methyl-N2-[4-(1-methyl-4-piperidinyl)pheny]-N4-[1-(methylsulfonyl)aminoindan-6-yl]-2,4-pyrimidinediamine]	1220	807
COc1cc(Nc2ncc(F)c(Nc3ccc(CNS(=O)(=O)C4CC4)cc3)n2)cc(OC)c1OC [II-1, N4-(4-cyclopropylsulfonylaminomethyl)phenyl-5-fluoro-N2-(3,4,5-trimethoxy)phenyl-2,4-pyrimidinediamine]	123	405
N#Cc1ccc(Nc2ncc(F)c(Nc3ccc(CNS(=O)(=O)C4CC4)cc3)n2)cc1Cl [II-5, N2-(3-chloro-4-cyano)phenyl-N4-(4-cyclopropylsulfonylaminomethyl)phenyl-5-fluoro-2,4-pyrimidinediamine]	364	6060
Cc1cc(C)cc(Nc2ncc(C)c(Nc3cccc(CNS(=O)(=O)C4CC4)c3)n2)c1 [II-11, N4-(3-cyclopropylsulfonylaminomethyl)phenyl-N2-(3,5-dimethyl)phenyl-5-methyl-2,4-pyrimidinediamine]	254	2800
CCN1CCN(c2ccc(Nc3ncc(C)c(Nc4cccc(CNS(=O)(=O)C5CC5)c4)n3)cc2C)CC1 [II-12, N4-(3-cyclopropylsulfonylaminomethyl)phenyl-N2-[4-(4-ethylpiperazino)-3-methyl]phenyl-5-methyl-2,4-pyrimidinediamine]	101	130
COc1cc(Nc2ncc(C)c(Nc3cccc(CNS(=O)(=O)C4CC4)c3)n2)cc(OC)c1OC [II-13, N4-(3-cyclopropylsulfonylaminomethyl)phenyl-5-methyl-N2-(3,4,5-trimethoxy)phenyl-2,4-pyrimidinediamine]	126	359
COc1ccc(Nc2ncc(C)c(Nc3cccc(CNS(=O)(=O)C4CC4)c3)n2)cc1Cl [II-14, N2-(3-chloro-4-methoxy)phenyl-N4-(3-cyclopropylsulfonylaminomethyl)phenyl-5-methyl-2,4-pyrimidinediamine]	152	2190
NC(=O)c1cccc(Nc2ncc(F)c(Nc3ccc(CNS(=O)(=O)C4CC4)cc3)n2)c1 [II-16, N2-(3-aminocarbonyl)phenyl-N4-(4-cyclopropylsulfonylaminomethyl)phenyl-5-fluoro-2,4-pyrimidinediamine]	265	3290
Cc1cnc(Nc2ccc(C(N)=O)cc2)nc1Nc1ccc(CN(C)S(=O)(=O)C2CC2)cc1 [II-19, N2-(4-aminocarbonyl)phenyl-N4-[4-(N-cyclopropylsulfonyl-N-methyl)aminomethyl]phenyl-5-methyl-2,4-pyrimidinediamine]	106	2210
Cc1cnc(Nc2ccc(C(N)=O)cc2)nc1Nc1cccc(CN(C)S(=O)(=O)C2CC2)c1 [II-21, N2-(4-aminocarbonyl)phenyl-N4-[3-(N-cyclopropylsulfonyl-N-methyl)aminomethyl]phenyl-5-methyl-2,4-pyrimidinediamine]	110	479
Cc1cnc(Nc2cccc(C(N)=O)c2)nc1Nc1cccc(CN(C)S(=O)(=O)C2CC2)c1 [II-22, N2-(3-aminocarbonyl)phenyl-N4-[3-(N-cyclopropylsulfonyl-N-methyl)aminomethyl]phenyl-5-methyl-2,4-pyrimidinediamine]	302	2690
Cc1cnc(Nc2ccc(C(N)=O)cc2)nc1Nc1cccc(CNS(=O)(=O)C2CC2)c1 [II-23, N2-(4-aminocarbonyl)phenyl-N4-(3-cyclopropylsulfonylaminomethyl)phenyl-5-methyl-2,4-pyrimidinediamine]	107	6140
Cc1cnc(Nc2ccc(C#N)cc2)nc1Nc1cccc(CNS(=O)(=O)C2CC2)c1 [II-25, N2-(4-cyano)phenyl-N4-(3-cyclopropylsulfonylaminomethyl)phenyl-5-methyl-2,4-pyrimidinediamine]	142	2300
Cc1cnc(Nc2cccc(C#N)c2)nc1Nc1cccc(CNS(=O)(=O)C2CC2)c1 [II-26, N2-(3-cyano)phenyl-N4-(3-cyclopropylsulfonylaminomethyl)phenyl-5-methyl-2,4-pyrimidinediamine]	146	2240
Cc1cnc(Nc2cccc(C#N)c2)nc1Nc1ccc(CN(C)S(=O)(=O)C2CC2)cc1 [II-28, N2-(3-cyano)phenyl-N4-[4-(N-cyclopropylsulfonyl-N-methyl)aminomethyl]phenyl-5-methyl-2,4-pyrimidinediamine]	233	10900
N#Cc1cccc(Nc2ncc(F)c(Nc3ccc(CNS(=O)(=O)C4CC4)cc3)n2)c1 [II-30, N2-(3-cyano)phenyl-N4-(4-cyclopropylsulfonylaminomethyl)phenyl-5-fluoro-2,4-pyrimidinediamine]	94.6	1130

These reach a lower IC50 [1]. Values come first.

IC50 [1] [nM]	IC50 [2] [nM]	SMILES
88	3400	Cc1cc(C)cc(Nc2ncc(F)c(Nc3ccc(CNS(=O)(=O)C4CC4)cc3)n2)c1 [II-4, N4-(4-cyclopropylsulfonylaminomethyl)phenyl-N2-(3,5-dimethyl)phenyl-5-fluoro-2,4-pyrimidinediamine]
36.4	138	CCN1CCN(c2ccc(Nc3ncc(F)c(Nc4ccc(CNS(=O)(=O)C5CC5)cc4)n3)cc2C)CC1 [II-6, N4-(4-cyclopropylsulfonylaminomethyl)phenyl-N2-[4-(4-ethylpiperazino)-3-methyl]phenyl-5-fluoro-2,4-pyrimidinediamine]
44.9	688	Cc1cc(C)cc(Nc2ncc(C)c(Nc3ccc(CNS(=O)(=O)C4CC4)cc3)n2)c1 [II-7, N4-(4-cyclopropylsulfonylaminomethyl)phenyl-N2-(3,5-dimethyl)phenyl-5-methyl-2,4-pyrimidinediamine]
36.2	200	CCN1CCN(c2ccc(Nc3ncc(C)c(Nc4ccc(CNS(=O)(=O)C5CC5)cc4)n3)cc2C)CC1 [II-8, N4-(4-cyclopropylsulfonylaminomethyl)phenyl-N2-[4-(4-ethylpiperazino)-3-methyl]phenyl-5-methyl-2,4-pyrimidinediamine]
82.6	408	COc1cc(Nc2ncc(C)c(Nc3ccc(CNS(=O)(=O)C4CC4)cc3)n2)cc(OC)c1OC [II-9, N4-(4-cyclopropylsulfonylaminomethyl)phenyl-5-methyl-N2-(3,4,5-trimethoxy)phenyl-2,4-pyrimidinediamine]
57.8	708	COc1ccc(Nc2ncc(C)c(Nc3ccc(CNS(=O)(=O)C4CC4)cc3)n2)cc1Cl [II-10, N2-(3-chloro-4-methoxy)phenyl-N4-(4-cyclopropylsulfonylaminomethyl)phenyl-5-methyl-2,4-pyrimidinediamine]
78.1	8060	NC(=O)c1ccc(Nc2ncc(F)c(Nc3ccc(CNS(=O)(=O)C4CC4)cc3)n2)cc1 [II-15, N2-(4-aminocarbonyl)phenyl-N4-(4-cyclopropylsulfonylaminomethyl)phenyl-5-fluoro-2,4-pyrimidinediamine]
87.1	2950	Cc1cnc(Nc2ccc(C(N)=O)cc2)nc1Nc1ccc(CNS(=O)(=O)C2CC2)c(Cl)c1 [II-17, N2-(4-aminocarbonyl)phenyl-N4-(3-chloro-4-cyclopropylsulfonylaminomethyl)phenyl-5-methyl-2,4-pyrimidinediamine]
78.6	12500	N#Cc1ccc(Nc2ncc(F)c(Nc3ccc(CNS(=O)(=O)C4CC4)cc3)n2)cc1 [II-29, N2-(4-cyano)phenyl-N4-(4-cyclopropylsulfonylaminomethyl)phenyl-5-fluoro-2,4-pyrimidinediamine]
35.7	2130	Cc1cnc(Nc2ccc(C(N)=O)cc2)nc1Nc1ccc(CNS(=O)(=O)C2CC2)cc1 [II-31, N2-(4-aminocarbonyl)phenyl-N4-(4-cyclopropylsulfonylaminomethyl)phenyl-5-methyl-2,4-pyrimidinediamine]
